Data set [1] can be described thus: refractive index (Na D-line) (dimensionless). Particulars: 101.33 kPa, Liquid, Standard Abbe refractometry.
For data set [2] the following is noted: Liquid; for Normal boiling temperature: Distillation.

Data on two molecules can be found in the NIST ThermoML archive (doi:10.1021/je101035p).

The structures appear in SMILES notation. ± gives the expanded uncertainty stated by the source.

For orientation: refractive index means a measure of how strongly the sample bends light. With `CCO` [ethanol], the refractive index in data set [1] (293.2 K) is 1.36115 ± 0.0007. Also, in data set [2], the Normal boiling temperature was 78.29 ± 1.1 °C.

A word on the mass density: it is mass per unit of volume. For `C=CC(C)(CCC=C(C)C)OC(C)=O` (stereo not given) [linalool acetate], the refractive index in data set [1] (294 K) is 1.45445 ± 0.0012. For the same molecule, the mass density in data set [2] (293.2 K, 101.33 kPa, Vibrating tube method) was 895.06 ± 4.4 kg/m3. Moreover, the Normal boiling temperature in data set [2] turned out to be 220.00 ± 1.2 °C.
